Experimental data: ChEMBL document CHEMBL1123903, “Synthesis and antimalarial effects of 4-[(7-chloro-4-quinolinyl)amino]-2-[(diethylamino)methyl] -6-alkylphenols and their N omega-oxides” (1987)

These molecules were tested on Mus musculus (assay: Number of mice surviving at 60 days postinfection when administered as a single dose of 40 mg/kg (sc) 72-h post infection (delta MST)). Settings: not given.
Format: functional

SMILES | Cures
CCN(CC)Cc1cc(Nc2cc[n+]([O-])c3cc(Cl)ccc23)cc(C)c1O | 2
CCN(CC)Cc1cc(Nc2ccnc3cc(Cl)ccc23)cc(C)c1O | 1
CCN(CC)Cc1cc(Nc2cc[n+]([O-])c3cc(Cl)ccc23)cc(C(C)C)c1O | 1
CCC(C)c1cc(Nc2ccnc3cc(Cl)ccc23)cc(CN(CC)CC)c1O (stereo not given) | 2
CC(C)(C)NCc1cc(Nc2ccnc3cc(Cl)ccc23)cc(-c2ccc(Cl)cc2)c1O [TEBUQUINE] | 4

These molecules were tested on Mus musculus (assay: Number of mice surviving at 60 days postinfection when administered as a single dose of 640 mg/kg (sc) 72-h post infection). Settings: not given.
Format: functional

SMILES | Cures
CCN(CC)Cc1cc(Nc2cc[n+]([O-])c3cc(Cl)ccc23)cc(C)c1O | 5
CCN(CC)Cc1cc(Nc2ccnc3cc(Cl)ccc23)cc(C)c1O | 5
CCC(C)c1cc(Nc2ccnc3cc(Cl)ccc23)cc(CN(CC)CC)c1O (stereo not given) | 5

The molecules below were run on Mus musculus (assay: Number of mice surviving at 60 days postinfection when administered as a single dose of 640 mg/kg (sc) 72-h post infection (delta MST)). Settings: not given.
Format: functional

SMILES | Cures
CCN(CC)Cc1cc(Nc2cc[n+]([O-])c3cc(Cl)ccc23)cc(C(C)C)c1O | 4

What follows are molecules tested on Mus musculus (assay: Number of mice surviving at 60 days postinfection when administered as a single dose of 80 mg/kg (sc) 72-h post infection (delta MST)). Settings: not given.
Format: functional

SMILES | Cures
CCN(CC)Cc1cc(Nc2cc[n+]([O-])c3cc(Cl)ccc23)cc(C)c1O | 1
CCN(CC)Cc1cc(Nc2ccnc3cc(Cl)ccc23)cc(C)c1O | 4
CCN(CC)Cc1cc(Nc2cc[n+]([O-])c3cc(Cl)ccc23)cc(C(C)C)c1O | 1
CCC(C)c1cc(Nc2ccnc3cc(Cl)ccc23)cc(CN(CC)CC)c1O (stereo not given) | 2
CC(C)(C)NCc1cc(Nc2ccnc3cc(Cl)ccc23)cc(-c2ccc(Cl)cc2)c1O [TEBUQUINE] | 3

These molecules were tested on Mus musculus (assay: Number of mice surviving at 60 days postinfection when administered as a single dose of 160 mg/kg (sc) 72-h post infection (delta MST)). Settings: not given.
Format: functional

SMILES | Cures
CCN(CC)Cc1cc(Nc2cc[n+]([O-])c3cc(Cl)ccc23)cc(C)c1O | 3
CCN(CC)Cc1cc(Nc2ccnc3cc(Cl)ccc23)cc(C)c1O | 4
CCN(CC)Cc1cc(Nc2cc[n+]([O-])c3cc(Cl)ccc23)cc(C(C)C)c1O | 1
CCC(C)c1cc(Nc2ccnc3cc(Cl)ccc23)cc(CN(CC)CC)c1O (stereo not given) | 1
CC(C)(C)NCc1cc(Nc2ccnc3cc(Cl)ccc23)cc(-c2ccc(Cl)cc2)c1O [TEBUQUINE] | 2

Each molecule was assayed on Mus musculus (assay: Number of mice surviving at 60 days postinfection when administered as a single dose of 20 mg/kg (sc) 72-h post infection (delta MST)). Settings: not given.
Format: functional

SMILES | Cures
CC(C)(C)NCc1cc(Nc2ccnc3cc(Cl)ccc23)cc(-c2ccc(Cl)cc2)c1O [TEBUQUINE] | 3

Each molecule was assayed on Mus musculus (assay: Number of mice surviving at 60 days postinfection when administered as a single dose of 320 mg/kg (sc) 72-h post infection). Settings: not given.
Format: functional

SMILES | Cures
CCC(C)c1cc(Nc2ccnc3cc(Cl)ccc23)cc(CN(CC)CC)c1O (stereo not given) | 5

What follows are molecules tested on Mus musculus (assay: Number of mice surviving at 60 days postinfection when administered as a single dose of 320 mg/kg (sc) 72-h post infection (delta MST)). Settings: not given.
Format: functional

SMILES | Cures
CCN(CC)Cc1cc(Nc2cc[n+]([O-])c3cc(Cl)ccc23)cc(C)c1O | 3
CCN(CC)Cc1cc(Nc2ccnc3cc(Cl)ccc23)cc(C)c1O | 3
CCN(CC)Cc1cc(Nc2cc[n+]([O-])c3cc(Cl)ccc23)cc(C(C)C)c1O | 1
CC(C)(C)NCc1cc(Nc2ccnc3cc(Cl)ccc23)cc(-c2ccc(Cl)cc2)c1O [TEBUQUINE] | 1

The molecules below were run on Mus musculus (assay: Antimalarial activity tested against trophozoite induced Plasmodium berghei in mice (Mus musculus) expressed as change in mean survival time after a single dose of 10 mg/kg (subcutaneously)). Settings: route subcutaneous.
Format: functional

SMILES | Delta MST
CCN(CC)Cc1cc(Nc2cc[n+]([O-])c3cc(Cl)ccc23)cc(C)c1O | 1.4 days
CCN(CC)Cc1cc(Nc2ccnc3cc(Cl)ccc23)cc(C)c1O | 7 days
CCN(CC)Cc1cc(Nc2cc[n+]([O-])c3cc(Cl)ccc23)cc(C(C)C)c1O | 3 days
CCC(C)c1cc(Nc2ccnc3cc(Cl)ccc23)cc(CN(CC)CC)c1O (stereo not given) | 9.8 days

Each molecule was assayed on Plasmodium berghei (assay: Change in mean survival time of trophozoite-induced Plasmodium berghei infection after 160 mg/kg subcutaneous dose). Settings: not given.
Format: functional

SMILES | Delta MST
CCN(CC)Cc1cc(Nc2cc[n+]([O-])c3cc(Cl)ccc23)cc(C)c1O | 13 days
CCN(CC)Cc1cc(Nc2ccnc3cc(Cl)ccc23)cc(C)c1O | 20.7 days
CCN(CC)Cc1cc(Nc2cc[n+]([O-])c3cc(Cl)ccc23)cc(C(C)C)c1O | 21.7 days
CCC(C)c1cc(Nc2ccnc3cc(Cl)ccc23)cc(CN(CC)CC)c1O (stereo not given) | 40.2 days
CC(C)(C)NCc1cc(Nc2ccnc3cc(Cl)ccc23)cc(-c2ccc(Cl)cc2)c1O [TEBUQUINE] | 14.9 days

The molecules below were run on Plasmodium berghei (assay: Change in mean survival time of trophozoite-induced Plasmodium berghei infection after 20 mg/kg subcutaneous dose). Settings: not given.
Format: functional

SMILES | Delta MST
CCN(CC)Cc1cc(Nc2cc[n+]([O-])c3cc(Cl)ccc23)cc(C)c1O | 7.6 days
CCN(CC)Cc1cc(Nc2ccnc3cc(Cl)ccc23)cc(C)c1O | 10.4 days
CCN(CC)Cc1cc(Nc2cc[n+]([O-])c3cc(Cl)ccc23)cc(C(C)C)c1O | 11.8 days
CCC(C)c1cc(Nc2ccnc3cc(Cl)ccc23)cc(CN(CC)CC)c1O (stereo not given) | 18 days
CC(C)(C)NCc1cc(Nc2ccnc3cc(Cl)ccc23)cc(-c2ccc(Cl)cc2)c1O [TEBUQUINE] | 14.9 days

The molecules below were run on Mus musculus (assay: Antimalarial activity tested against trophozoite induced Plasmodium berghei in mice (Mus musculus) expressed as change in mean survival time after a single dose of 320 mg/kg (subcutaneously)). Settings: route subcutaneous.
Format: functional

SMILES | Delta MST
CCN(CC)Cc1cc(Nc2cc[n+]([O-])c3cc(Cl)ccc23)cc(C)c1O | 19 days
CCN(CC)Cc1cc(Nc2ccnc3cc(Cl)ccc23)cc(C)c1O | 17.2 days
CCN(CC)Cc1cc(Nc2cc[n+]([O-])c3cc(Cl)ccc23)cc(C(C)C)c1O | 29.7 days
CC(C)(C)NCc1cc(Nc2ccnc3cc(Cl)ccc23)cc(-c2ccc(Cl)cc2)c1O [TEBUQUINE] | 16.4 days

The molecules below were run on Plasmodium berghei (assay: Change in mean survival time of trophozoite-induced Plasmodium berghei infection after 40 mg/kg subcutaneous dose). Settings: not given.
Format: functional

SMILES | Delta MST
CCN(CC)Cc1cc(Nc2cc[n+]([O-])c3cc(Cl)ccc23)cc(C)c1O | 14.3 days
CCN(CC)Cc1cc(Nc2ccnc3cc(Cl)ccc23)cc(C)c1O | 13 days
CCN(CC)Cc1cc(Nc2cc[n+]([O-])c3cc(Cl)ccc23)cc(C(C)C)c1O | 15.5 days
CCC(C)c1cc(Nc2ccnc3cc(Cl)ccc23)cc(CN(CC)CC)c1O (stereo not given) | 27.7 days
CC(C)(C)NCc1cc(Nc2ccnc3cc(Cl)ccc23)cc(-c2ccc(Cl)cc2)c1O [TEBUQUINE] | 19.9 days

What follows are molecules tested on Mus musculus (assay: Antimalarial activity tested against trophozoite induced Plasmodium berghei in mice (Mus musculus) expressed as change in mean survival time after a single dose of 640 mg/kg (subcutaneously)). Settings: route subcutaneous.
Format: functional

SMILES | Delta MST
CCN(CC)Cc1cc(Nc2cc[n+]([O-])c3cc(Cl)ccc23)cc(C(C)C)c1O | 23.7 days
CC(C)(C)NCc1cc(Nc2ccnc3cc(Cl)ccc23)cc(-c2ccc(Cl)cc2)c1O [TEBUQUINE] | 17.1 days

These molecules were tested on Plasmodium berghei (assay: Change in mean survival time of trophozoite-induced Plasmodium berghei infection after 80 mg/kg subcutaneous dose). Settings: not given.
Format: functional

SMILES | Delta MST
CCN(CC)Cc1cc(Nc2cc[n+]([O-])c3cc(Cl)ccc23)cc(C)c1O | 11.5 days
CCN(CC)Cc1cc(Nc2ccnc3cc(Cl)ccc23)cc(C)c1O | 13.7 days
CCN(CC)Cc1cc(Nc2cc[n+]([O-])c3cc(Cl)ccc23)cc(C(C)C)c1O | 15.5 days
CCC(C)c1cc(Nc2ccnc3cc(Cl)ccc23)cc(CN(CC)CC)c1O (stereo not given) | 29.4 days
CC(C)(C)NCc1cc(Nc2ccnc3cc(Cl)ccc23)cc(-c2ccc(Cl)cc2)c1O [TEBUQUINE] | 14.9 days
